# Experimental data from ChEMBL document CHEMBL5050844 (2019).
# Key:
# [1] = Induction of anti-CD3 antibodies-stimulated human T cell activation at 1 uM assessed fold increase in CD25 expression measured by ELISA assay; format: functional, T cell line; note: reference of the scale not given here
# [2] = Induction of anti-CD3 antibodies-stimulated human CD4+ T cell activation in immunocompetent mouse assessed fold increase in CD25 expression at 90 mg/kg, po administered twice a day; format: functional; note: reference of the scale not given here
# [3] = Induction of anti-CD3 antibodies-stimulated human CD4+ T cell activation in immunocompetent mouse assessed fold increase in CD25 expression at 180 mg/kg, po administered twice a day; format: functional; note: reference of the scale not given here
# [4] = Induction of anti-CD3 antibodies-stimulated human CD8+ T cell activation in immunocompetent mouse assessed fold increase in CD25 expression at 180 mg/kg, po administered twice a day; format: functional; note: reference of the scale not given here
# [5] = biological target: T1, E3 ubiquitin-protein ligase CBL-B (Homo sapiens, UniProt Q13191); assay: Inhibition of N-terminal Avi-tagged human CBL-B (36 to 427 residues) incubated with 60 nM Src kinase for 1.5 hrs followed by incubation with fluorescently labeled UbcH5B-Ub for 1 hr and measured by TR-FRET assay; format: single protein
# T1 sequence (Q13191 whole entry, the tested form may be a part): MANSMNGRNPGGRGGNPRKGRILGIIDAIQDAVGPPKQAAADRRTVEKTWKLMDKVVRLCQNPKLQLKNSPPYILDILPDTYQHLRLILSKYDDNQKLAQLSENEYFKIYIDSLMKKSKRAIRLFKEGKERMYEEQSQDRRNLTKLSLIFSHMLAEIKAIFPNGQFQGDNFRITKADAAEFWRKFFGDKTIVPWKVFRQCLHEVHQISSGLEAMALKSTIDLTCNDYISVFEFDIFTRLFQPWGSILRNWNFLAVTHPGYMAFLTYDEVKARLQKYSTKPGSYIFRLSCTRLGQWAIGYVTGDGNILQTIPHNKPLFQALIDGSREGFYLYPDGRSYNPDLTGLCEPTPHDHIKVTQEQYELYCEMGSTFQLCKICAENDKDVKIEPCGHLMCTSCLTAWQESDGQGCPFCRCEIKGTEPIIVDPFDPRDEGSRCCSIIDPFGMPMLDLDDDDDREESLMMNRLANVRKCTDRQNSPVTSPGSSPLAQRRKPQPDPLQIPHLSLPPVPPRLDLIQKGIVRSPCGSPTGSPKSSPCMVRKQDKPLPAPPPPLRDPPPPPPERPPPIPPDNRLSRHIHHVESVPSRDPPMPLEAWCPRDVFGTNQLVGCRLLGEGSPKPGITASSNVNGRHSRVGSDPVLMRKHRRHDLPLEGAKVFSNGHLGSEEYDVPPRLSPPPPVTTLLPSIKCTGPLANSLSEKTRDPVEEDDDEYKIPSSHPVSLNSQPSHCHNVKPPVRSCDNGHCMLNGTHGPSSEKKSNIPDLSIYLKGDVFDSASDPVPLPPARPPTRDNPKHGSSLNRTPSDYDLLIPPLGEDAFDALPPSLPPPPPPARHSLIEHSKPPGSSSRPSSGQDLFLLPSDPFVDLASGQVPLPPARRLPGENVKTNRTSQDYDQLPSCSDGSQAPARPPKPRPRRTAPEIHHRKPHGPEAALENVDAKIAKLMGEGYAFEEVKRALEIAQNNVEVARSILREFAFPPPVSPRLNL
# [6] = Induction of anti-CD3 antibodies-stimulated human CD8+ T cell activation in immunocompetent mouse assessed fold increase in CD25 expression at 90 mg/kg, ip administered thrice a day; format: functional; note: reference of the scale not given here
# [7] = Induction of anti-CD3 antibodies-stimulated human T cell activation at 1 uM assessed fold increase in IL-2 secretion measured by ELISA assay; format: functional, T cell line; note: reference of the scale not given here
# [8] = Induction of anti-CD3 antibodies-stimulated human CD8+ T cell activation in immunocompetent mouse assessed fold increase in CD25 expression at 45 mg/kg, po administered twice a day; format: functional; note: reference of the scale not given here
# [9] = Induction of anti-CD3/CD28 antibodies-stimulated human T cell activation at 1 uM assessed fold increase in CD25 expression measured by ELISA assay; format: functional, T cell line
# [10] = Induction of anti-CD3 antibodies-stimulated human CD8+ T cell activation in immunocompetent mouse assessed fold increase in CD25 expression at 135 mg/kg, po administered twice a day; format: functional; note: reference of the scale not given here
# [11] = Induction of anti-CD3/CD28 antibodies-stimulated human T cell activation at 0.3 uM assessed fold increase in CD25 expression measured by ELISA assay; format: functional, T cell line
# [12] = Induction of anti-CD3 antibodies-stimulated human CD4+ T cell activation in immunocompetent mouse assessed fold increase in CD25 expression at 90 mg/kg, ip administered twice a day; format: functional; note: reference of the scale not given here
# [13] = Induction of anti-CD3/CD28 antibodies-stimulated human T cell activation at 0.3 uM assessed fold increase in IL-2 secretion measured by ELISA assay; format: functional, T cell line
# [14] = Induction of anti-CD3/CD28 antibodies-stimulated human T cell activation at 1 uM assessed fold increase in IL-2 secretion measured by ELISA assay; format: functional, T cell line
# [15] = Induction of activation of human CD56+ CD3- NK cells co-cultured with human K562 cells in 1:1 ratio and assessed as increase in MIP1beta secretion at 1 uM measured by ELISA assay; format: functional, Natural killer cell
# [16] = Induction of activation of human CD56+ CD3- NK cells co-cultured with human K562 cells in 5:1 ratio and assessed as increase in IFN-gamma secretion at 1 uM measured by ELISA assay; format: functional, Natural killer cell
# [17] = Induction of activation of human CD56+ CD3- NK cells co-cultured with human K562 cells in 5:1 ratio and assessed as increase in MIP1beta secretion at 10 uM measured by ELISA assay; format: functional, Natural killer cell
# [18] = Induction of activation of human CD56+ CD3- NK cells co-cultured with human K562 cells in 5:1 ratio and assessed as increase in TNF-alpha secretion at 1 uM measured by ELISA assay; format: functional, Natural killer cell
# [19] = Induction of activation of human CD56+ CD3- NK cells co-cultured with human K562 cells in 1:1 ratio and assessed as increase in IFN-gamma secretion at 10 uM measured by ELISA assay; format: functional, Natural killer cell
# [20] = Induction of activation of human CD56+ CD3- NK cells co-cultured with human K562 cells in 1:1 ratio and assessed as increase in IFN-gamma secretion at 1 uM measured by ELISA assay; format: functional, Natural killer cell
# [21] = Induction of anti-CD3 antibodies-stimulated human T cell activation at 8 uM assessed fold increase in CD25 expression measured by ELISA assay; format: functional, T cell line; note: reference of the scale not given here
# [22] = Induction of activation of human CD56+ CD3- NK cells co-cultured with human K562 cells in 1:1 ratio and assessed as increase in TNF-alpha secretion at 1 uM measured by ELISA assay; format: functional, Natural killer cell
# [23] = Induction of anti-CD3/CD28 antibodies-stimulated human T cell activation at 4 uM assessed fold increase in CD25 expression measured by ELISA assay; format: functional, T cell line
# [24] = biological target: T1, E3 ubiquitin-protein ligase CBL-B; assay: Binding affinity towards N-terminal biotinylated Avi-tagged human CBL-B (36 to 427 residues) measured by surface plasmon resonance assay
# [25] = Induction of anti-CD3/CD28 antibodies-stimulated human T cell activation at 4 uM assessed fold increase in IL-2 secretion measured by ELISA assay; format: functional, T cell line
# [26] = Induction of anti-CD3 antibodies-stimulated human CD4+ T cell activation in immunocompetent mouse assessed fold increase in CD25 expression at 45 mg/kg, po administered twice a day; format: functional; note: reference of the scale not given here
# [27] = Induction of anti-CD3 antibodies-stimulated human CD8+ T cell activation in immunocompetent mouse assessed fold increase in CD25 expression at 45 mg/kg, ip administered twice a day; format: functional; note: reference of the scale not given here
# [28] = Induction of anti-CD3 antibodies-stimulated human CD4+ T cell activation in immunocompetent mouse assessed fold increase in CD25 expression at 45 mg/kg, ip administered twice a day; format: functional; note: reference of the scale not given here
# [29] = Induction of anti-CD3 antibodies-stimulated human CD4+ T cell activation in immunocompetent mouse assessed fold increase in CD25 expression at 135 mg/kg, po administered twice a day; format: functional; note: reference of the scale not given here
# [30] = Induction of anti-CD3 antibodies-stimulated human T cell activation at 8 uM assessed fold increase in IL-2 secretion measured by ELISA assay; format: functional, T cell line; note: reference of the scale not given here
# [31] = Induction of activation of human CD56+ CD3- NK cells co-cultured with human K562 cells in 1:1 ratio and assessed as increase in MIP1beta secretion at 10 uM measured by ELISA assay; format: functional, Natural killer cell
# [32] = Induction of anti-CD3 antibodies-stimulated human CD8+ T cell activation in immunocompetent mouse assessed fold increase in CD25 expression at 90 mg/kg, po administered twice a day; format: functional; note: reference of the scale not given here
# [33] = Induction of activation of human CD56+ CD3- NK cells co-cultured with human K562 cells in 5:1 ratio and assessed as increase in TNF-alpha secretion at 10 uM measured by ELISA assay; format: functional, Natural killer cell
# [34] = Induction of activation of human CD56+ CD3- NK cells co-cultured with human K562 cells in 1:1 ratio and assessed as increase in TNF-alpha secretion at 10 uM measured by ELISA assay; format: functional, Natural killer cell
# [35] = Induction of activation of human CD56+ CD3- NK cells co-cultured with human K562 cells in 5:1 ratio and assessed as increase in MIP1beta secretion at 1 uM measured by ELISA assay; format: functional, Natural killer cell
# [36] = Induction of activation of human CD56+ CD3- NK cells co-cultured with human K562 cells in 5:1 ratio and assessed as increase in IFN-gamma secretion at 10 uM measured by ELISA assay; format: functional, Natural killer cell
# [37] = Induction of anti-CD3 antibodies-stimulated human CD8+ T cell activation in immunocompetent mouse assessed fold increase in CD25 expression at 90 mg/kg, ip administered twice a day; format: functional; note: reference of the scale not given here
# [38] = Induction of activation of human CD56+ CD3- NK cells co-cultured with human K562 cells in 1:1 ratio and assessed as increase in TNF-alpha secretion at 0.625 uM measured by ELISA assay; format: functional, Natural killer cell
# [39] = Induction of anti-CD3 antibodies-stimulated human exhausted CD4+ T cell activation assessed fold increase in CTLA4 expression measured by flow cytometry analysis; format: functional, T cell line; note: reference of the scale not given here
# [40] = Induction of anti-CD3/CD28 antibodies-stimulated human anergic T cell activation at 1.11 uM assessed fold increase in IFN-gamma secretion measured by ELISA assay; format: functional, T cell line
# [41] = Induction of anti-CD3/CD28 antibodies-stimulated human anergic T cell activation at 10 uM assessed fold increase in IFN-gamma secretion measured by ELISA assay; format: functional, T cell line
# [42] = Induction of allogenic human T cell activation at 3 uM assessed fold increase in cell proliferation; format: functional, T cell line
# [43] = Induction of anti-CD3 antibodies-stimulated human exhausted CD8+ T cell activation assessed fold increase in CTLA4 expression measured by flow cytometry analysis; format: functional, T cell line; note: reference of the scale not given here
# [44] = tested on: B cell; assay: Induction of anti-IgM-stimulated human CD20+ B cell activation at 10 to 1000 uM assessed as increase in CD69 expression measured as mean fluorescence intensity AUC by flow cytometry analysis; format: functional, cell-based; conditions: dose 10-1000 µM
# [45] = Induction of anti-CD3 antibodies-stimulated human exhausted T cell activation assessed fold increase in IL-2 secretion measured by ELISA assay; format: functional, T cell line; note: reference of the scale not given here
# [46] = Induction of activation of human CD56+ CD3- NK cells co-cultured with human K562 cells in 1:1 ratio and assessed as increase in TNF-alpha secretion at 2.5 uM measured by ELISA assay; format: functional, Natural killer cell
# [47] = Induction of activation of human CD56+ CD3- NK cells co-cultured with human K562 cells in 1:1 ratio and assessed as increase in IFN-gamma secretion at 2.5 uM measured by ELISA assay; format: functional, Natural killer cell
# [48] = Induction of activation of human CD56+ CD3- NK cells co-cultured with human K562 cells in 1:1 ratio and assessed as increase in IFN-gamma secretion at 0.625 uM measured by ELISA assay; format: functional, Natural killer cell
# [49] = Induction of allogenic human T cell activation at 10 uM assessed fold increase in cell proliferation; format: functional, T cell line
# [50] = Induction of anti-CD3 antibodies-stimulated human exhausted T cell activation assessed fold increase in IFN-gamma secretion measured by ELISA assay; format: functional, T cell line; note: reference of the scale not given here
# [51] = Induction of anti-CD3/CD28 antibodies-stimulated human anergic T cell activation at 0.37 uM assessed fold increase in IFN-gamma secretion measured by ELISA assay; format: functional, T cell line
# [52] = Induction of anti-CD3 antibodies-stimulated human exhausted T cell activation assessed fold increase in GM-CSF secretion measured by ELISA assay; format: functional, T cell line; note: reference of the scale not given here
SMILES,fold change (FC) [1],fold change (FC) [2],fold change (FC) [3],fold change (FC) [4],IC50 [5] [nM],fold change (FC) [6],fold change (FC) [7],fold change (FC) [8],fold change (FC) [9],fold change (FC) [10],fold change (FC) [11],fold change (FC) [12],fold change (FC) [13],fold change (FC) [14],fold change (FC) [15],fold change (FC) [16],fold change (FC) [17],fold change (FC) [18],fold change (FC) [19],fold change (FC) [34],further results
"C[C@@H](c1cc2c(c(C(F)(F)F)c1)CN(c1cccc(C3([C@@H](F)c4nncn4C)COC3)c1)C2=O)N1CCC2(CC2)C1 (single isomer, unassigned)",>=1.001,>2.5,>2.5,1.51,< 100,1.51,>=0.201,1,1.31,1.51,1.31,1.51,>=7.5,>=7.5,–,–,–,–,–,–,–
C[C@H](Cc1nncn1C)c1cccc(NC(=O)c2cc(C3CC3)cc(C(F)(F)F)n2)c1,>=1.001,1,1,1,< 100,–,>=0.201,–,1.51,1,1.31,–,2.51,5,1.01,2.01,1.01,2.01,2.01,1.01,fold change (FC) [20]: 2.01; fold change (FC) [21]: >=1.001; fold change (FC) [22]: 2.01; fold change (FC) [23]: 1.51; Kd [24]: < 100 nM; fold change (FC) [25]: >=7.5; fold change (FC) [26]: 1; fold change (FC) [27]: 1; fold change (FC) [28]: 1.51; fold change (FC) [29]: 2.01; fold change (FC) [30]: >=0.201; fold change (FC) [31]: 1.01; fold change (FC) [32]: 1; fold change (FC) [33]: 2.01; fold change (FC) [35]: 1.01; fold change (FC) [36]: >=5
C[C@H](Cc1nncn1C)c1cccc(NC(=O)c2ccnc(C(F)(F)F)n2)c1,0.801,–,–,–,–,–,>=0.201,–,>=1.76,–,1.51,1.51,1.01,2.51,1.01,2.01,2.01,2.01,2.01,2.01,fold change (FC) [20]: 1.01; fold change (FC) [21]: >=1.001; fold change (FC) [22]: <=1; fold change (FC) [23]: >=1.76; fold change (FC) [37]: 1; fold change (FC) [25]: >=7.5; fold change (FC) [30]: >=0.201; fold change (FC) [31]: 2.01; fold change (FC) [33]: >=5; fold change (FC) [35]: 1.01; fold change (FC) [36]: >=5
Cn1cnnc1CC1(c2cccc(NC(=O)c3cc(CN4CCC5(CC5)C4)cc(C4CC4)n3)c2)COC1,>=1.001,>2.5,>2.5,1.51,< 100,1,>=0.201,1,1.31,1,1.31,1.51,>=7.5,>=7.5,–,–,–,–,>=5,>=5,fold change (FC) [38]: >=5; fold change (FC) [39]: >1.61; fold change (FC) [40]: >4.01; fold change (FC) [41]: >4.01; fold change (FC) [42]: >3; fold change (FC) [43]: >1.61; AUC [44]: > 1.51; fold change (FC) [45]: 2.51; fold change (FC) [46]: 1.01; fold change (FC) [47]: >=5; fold change (FC) [48]: 2.01; fold change (FC) [49]: >3; fold change (FC) [50]: >1.61; fold change (FC) [51]: >4.01; fold change (FC) [52]: >1.61
